Measurements as given in patent US20240245783A1, “METALLO-BETA-LACTAMASE INHIBITOR” (priority 2021, published 2024).

What was measured:
[1] = tested on: multidrug-resistant Pseudomonas aeruginosa; assay: Growth suppression of multidrug-resistant Pseudomonas aeruginosa clinical isolates (Test Example 7); type: cell-based; conditions: MEPM 2 μg/ml alone, compound 8 20 μM (15.5 μg/ml) alone, Combination = both, 3 wells
Method: The effect of NODA-GA-conjugated doripenem (compound 8) on the susceptibility of a Pseudomonas aeruginosa clinical isolate to a carbapenem antibacterial agent was evaluated by the following method. The Pseudomonas aeruginosa clinical isolate was cultured overnight with shaking in LB medium. The bacterial solution was diluted to 1/1000 with LB medium, used as a test bacterial solution, and then seeded in a 96-well plate. Meropenem (Wako Pure Chemical Industries, Ltd.) was added to this bacterial solution in such a manner that the concentration was 2 μg/ml. The effect of NODA-GA-doripenem alone was also examined. The bacteria were cultured in an incubator at 37° C. for one day, and the growth at that time was measured by turbidity (655 nm).
MEPM in Table 1 is meropenem (2 μg/ml) administered alone; NODA-GA-doripenem is compound 8 (20 μM; 15.5 μg/ml) administered alone; Combination means a combined use of meropenem (2 μg/ml) and compound 8 (20 μM; 15.5 μg/ml).

[2] = tested on: Multidrug-resistant Pseudomonas aeruginosa strain MR4; assay: Growth inhibition of Pseudomonas aeruginosa strain MR4 (Test Example 8); type: cell-based; conditions: after 24 hours, compared with doripenem
Method: Multidrug-resistant Pseudomonas aeruginosa strain MR4 was cultured with doripenem or compound 8, and the bacterial load was assessed by turbidity after 24 hours. FIG. 18 depicts the results.

C[C@@H](O)[C@H]1C(=O)N2C(C(=O)O)=C(S[C@@H]3CN[C@H](CNS(=O)(=O)NC(=O)CCC(C(=O)O)N4CCN(CC(=O)O)CCN(CC(=O)O)CC4)C3)[C@H](C)[C@H]12 (stereo partly drawn) [compound 8, NODA-GA-conjugated doripenem]
suppression of bacterial growth ([1]; strain 808#1): X (x indicates that the number of wells in which suppression of bacterial growth was confirmed was 1 or less) | suppression of bacterial growth ([1]; strain 808#2): X (x indicates that the number of wells in which suppression of bacterial growth was confirmed was 1 or less) | suppression of bacterial growth ([1]; strain MR1): ◯ (◯ indicates that bacterial growth was suppressed in all 3 wells) | suppression of bacterial growth ([1]; strain MR2): ◯ (◯ indicates that bacterial growth was suppressed in all 3 wells) | suppression of bacterial growth ([1]; strain MR3): Δ (Δ indicates that bacterial growth was suppressed in 2 wells out of 3 wells) | suppression of bacterial growth ([1]; strain MR4): Δ (Δ indicates that bacterial growth was suppressed in 2 wells out of 3 wells) | suppression of bacterial growth ([1]; strain MR5): ◯ (◯ indicates that bacterial growth was suppressed in all 3 wells) | suppression of bacterial growth ([1]; strain MR6): Δ (Δ indicates that bacterial growth was suppressed in 2 wells out of 3 wells) | suppression of bacterial growth ([1]; strain MR7): ◯ (◯ indicates that bacterial growth was suppressed in all 3 wells) | suppression of bacterial growth ([1]; strain MR8): X (x indicates that the number of wells in which suppression of bacterial growth was confirmed was 1 or less) | suppression of bacterial growth ([1]; strain MR9): ◯ (◯ indicates that bacterial growth was suppressed in all 3 wells) | suppression of bacterial growth ([1]; strain MR10): Δ (Δ indicates that bacterial growth was suppressed in 2 wells out of 3 wells) | suppression of bacterial growth ([1]; strain MR11): X (x indicates that the number of wells in which suppression of bacterial growth was confirmed was 1 or less) | suppression of bacterial growth ([1]; strain MR12): X (x indicates that the number of wells in which suppression of bacterial growth was confirmed was 1 or less) | suppression of bacterial growth ([1]; strain MR13): X (x indicates that the number of wells in which suppression of bacterial growth was confirmed was 1 or less) | suppression of bacterial growth ([1]; strain MR14): Δ (Δ indicates that bacterial growth was suppressed in 2 wells out of 3 wells) | suppression of bacterial growth ([1]; strain MR15): ◯ (◯ indicates that bacterial growth was suppressed in all 3 wells) | suppression of bacterial growth ([1]; strain MR16): X (x indicates that the number of wells in which suppression of bacterial growth was confirmed was 1 or less) | suppression of bacterial growth ([1]; strain NM1): Δ (Δ indicates that bacterial growth was suppressed in 2 wells out of 3 wells) | suppression of bacterial growth ([1]; strain NM2): Δ (Δ indicates that bacterial growth was suppressed in 2 wells out of 3 wells) | suppression of bacterial growth ([1]; strain NM3): ◯ (◯ indicates that bacterial growth was suppressed in all 3 wells) | suppression of bacterial growth ([1]; strain NM4): ◯ (◯ indicates that bacterial growth was suppressed in all 3 wells) | suppression of bacterial growth ([1]; strain NM5): X (x indicates that the number of wells in which suppression of bacterial growth was confirmed was 1 or less) | anti-Pseudomonas aeruginosa effect (bacterial load by turbidity) [2]: significantly improved compared to that of doripenem
